# In PMC10020958, “2-(4-Fluorophenyl)-1H-benzo[d]imidazole as a Promising Template for the Development of Metabolically Robust, α1β2γ2GABA-A Receptor-Positive Allosteric Modulators” (ACS Chemical Neuroscience, 2023):
# Columns and labels:
# [1] = target: T1, α1β2γ2-GABA-A receptors stably expressed in HEK293 cells (Homo sapiens, UniProt P14867+P18507); experiment: Electrophysiological studies, automated patch clamp (QPatch16X), positive allosteric modulation of GABA-induced Cl- currents; format: cell-based; settings: compound 1 μM co-applied with 10 μM GABA; GABA alone = 100%; mean ± SEM
# T1 construct: expressed in transfected cells
# T1 sequence (P14867 28-456): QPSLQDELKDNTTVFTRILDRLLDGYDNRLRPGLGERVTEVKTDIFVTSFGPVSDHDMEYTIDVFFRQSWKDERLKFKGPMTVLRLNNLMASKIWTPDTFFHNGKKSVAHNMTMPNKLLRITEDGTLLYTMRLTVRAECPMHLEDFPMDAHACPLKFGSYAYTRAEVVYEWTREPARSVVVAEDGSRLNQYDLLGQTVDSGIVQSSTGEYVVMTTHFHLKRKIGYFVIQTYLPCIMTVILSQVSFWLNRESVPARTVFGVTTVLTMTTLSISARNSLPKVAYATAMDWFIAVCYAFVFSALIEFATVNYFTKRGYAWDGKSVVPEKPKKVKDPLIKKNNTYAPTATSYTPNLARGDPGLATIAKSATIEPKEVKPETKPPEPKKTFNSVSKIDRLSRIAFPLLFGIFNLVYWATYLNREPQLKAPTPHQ
# T1 sequence (P47870 25-512 partner limits assumed): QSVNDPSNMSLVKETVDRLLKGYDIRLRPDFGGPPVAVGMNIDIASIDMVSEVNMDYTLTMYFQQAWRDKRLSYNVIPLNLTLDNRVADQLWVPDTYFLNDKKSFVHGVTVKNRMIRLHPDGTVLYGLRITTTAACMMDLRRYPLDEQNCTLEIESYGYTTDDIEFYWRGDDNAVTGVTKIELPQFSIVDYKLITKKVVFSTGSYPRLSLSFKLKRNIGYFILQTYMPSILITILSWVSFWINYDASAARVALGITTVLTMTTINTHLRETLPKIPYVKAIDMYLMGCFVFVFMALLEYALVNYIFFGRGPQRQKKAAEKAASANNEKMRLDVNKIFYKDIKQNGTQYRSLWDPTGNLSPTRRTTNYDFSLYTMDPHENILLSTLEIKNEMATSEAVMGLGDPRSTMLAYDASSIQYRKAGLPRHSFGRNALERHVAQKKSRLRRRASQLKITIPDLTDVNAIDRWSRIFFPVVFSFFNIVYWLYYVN
# T1 sequence (P18507 40-475): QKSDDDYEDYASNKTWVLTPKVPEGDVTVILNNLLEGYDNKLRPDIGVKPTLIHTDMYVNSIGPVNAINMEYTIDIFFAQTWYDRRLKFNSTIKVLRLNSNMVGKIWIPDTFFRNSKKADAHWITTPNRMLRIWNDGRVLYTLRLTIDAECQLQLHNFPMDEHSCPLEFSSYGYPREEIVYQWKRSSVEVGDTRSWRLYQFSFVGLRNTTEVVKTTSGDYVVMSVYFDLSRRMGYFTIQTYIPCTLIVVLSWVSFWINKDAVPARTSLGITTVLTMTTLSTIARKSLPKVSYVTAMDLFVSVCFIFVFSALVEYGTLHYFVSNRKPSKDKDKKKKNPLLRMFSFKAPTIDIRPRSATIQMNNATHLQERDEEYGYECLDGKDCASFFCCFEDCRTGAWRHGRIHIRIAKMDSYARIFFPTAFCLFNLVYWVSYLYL
# Method: Given that ligands binding within the α1/γ2 interface act as PAMs, we selected the most promising 1H-benzo[d]imidazoles (9, 15, 16, 23, and 29) for electrophysiological studies using automated patch clamp recordings (QPatch16X, Sophion). We expected that 1H-benzo[d]imidazoles would potentiate GABA-induced Cl^– currents rather than inducing ion passage alone.
# Electrophysiology studies were performed using the QPatch16X automatic patch clamp platform (Sophion Biosciences) and HEK293 cells, stably expressing the α1β2γ2 subunits of the human GABA-A receptor. Prior to the assay recordings, the cells were transferred from the culture flask through a TrypLE Express solution (LifeTechnologies) and resuspended in serum-free media. The cells were placed in the lidless microtube, located onboard the automated electrophysiology instrument. The cells were then automatically relocated to a built-in centrifuge, spun down, and washed in Ringer’s extracellular solution. The cells were transferred to the pipetting wells of a single-use 16-channel planar patch chip plate (QPlate 16X), and gigaseals were formed upon implementation of a combined suction/voltage protocol. Subsequent suction induced whole-cell configuration. The chloride currents passed via the GABA-A receptor were recorded for 7 s after single addition of a tested molecule. Through whole-cell recording, the holding potential was set to −90 mV. The assay was performed at room temperature. The extracellular solution was composed of the following ingredients: consisted of 2 mM […], 145 mM NaCl, 10 mM HEPES, CaCl2, 1 mM MgCl2, 10 mM glucose (pH 7.4, 300 mOsm), and intracellular solution contained 140 mM CsF, 1 mM EGTA, 5 mM CsOH, 10 mM HEPES, and 20 mMNaCl (pH 7.2, 320 mOsm). The screening assays were established in the instrument software by sequential application of 10 μM GABA (reference agonist AG1), 1 μM examined molecule compounds, and compounds co-administered with 10 μM GABA (T2); second addition of 10 μM GABA (AG2); 10 μM bicuculline (reference antagonist) along with 10 μM GABA (ATG). The intermission among the addition of particular molecules was 60 s. In a typical procedure, 5 μL of ligand was added to the cells, followed by 3 s of washout with an extracellular solution (two times […]). For the allosteric modulator/antagonist mode, the cells were preincubated with the tested compound alone for 50 s, followed by the addition of the reference agonist. The data obtained were processed using QPatch Assay Software (v5.0, Sophion Biosciences) and are represented as the mean of at least three independent experiments performed on separate cells. The validation criteria for a single test were current amplitude evoked by adding GABA greater than 500 pA and a change between cells’ response to GABA applications (AG1 and AG2) not greater than 25%. The relative compound efficiency was analyzed as the baseline-corrected ratio of maximal current amplitudes induced by the addition of tested compounds and reference agonist (T1-ATG/AG1-ATG or T2-ATG/AG1-ATG). The obtained raw current recordings were normalized and represented as % of the current amplitude induced by a reference agonist (GABA = 100%) using the QPatch Assay Software (v5.0, Sophion Biosciences).[24]
# [2] = target: GABA-A receptor (benzodiazepine site, α1/γ2 interface); experiment: Radioligand binding assay for the GABA-A receptor ([3H]-flunitrazepam displacement, rat brain homogenate); settings: pKi = -log Ki, n.a. = no affinity
# in vitro = settings: human; for remaining at 2 h, 50 μM: % remaining (parent compound)
# Method: Given that our goal was to obtain metabolically stable scaffolds, we selected 9 and 23 as representatives of each series for metabolic stability studies using human liver microsomes (HLMs). In parallel, we interrogated the quality of 1H-benzo[d]imidazole derivatives by confronting them head-to-head with the comparator drug alpidem.
# The in vitro evaluation of the metabolic stability of the selected compound was performed using human liver microsomes (HLMs) (Sigma-Aldrich, St. Louis, MO, USA) as described previously.[25] The reaction mixture contained 50 μM of tested molecules HLMs (1 mg/mL) in 10 mM tris–HCl buffer. Following 5 min of preincubation, 50 μL of the NADPH Regeneration System (Promega, Madison, WI, USA) was added to induce the reaction. Next, the resulting reaction mixture was incubated at 37 °C for 120 min. The reaction was quenched with the addition of 200 μL of cold extra pure methanol and then centrifuged at 14,000 rpm for 15 min. The resulting supernatant was analyzed using an LC/MS Waters ACQUITY TQD system (Waters, Milford, USA).
# [3] = test system: HepG2 human hepatoma cells; experiment: Hepatotoxicity assay: cell viability (PrestoBlue) and cell membrane damage (ToxiLight); format: cell-based; settings: 24 h treatment; for cytotoxic effect in HepG2 cells: concentrations up to 50 μM
# Method: (§1) Given that drug-induced liver injury (DILI) is the leading cause of the termination of potential drug candidates,[21],[22] two of the main molecules 9 and 23 were further assayed in HepG2 human hepatoma cells to assess their potential risk of toxicity.[23] The hepatotoxicity of the compounds tested was evaluated using two methods: cell viability (Figure 8A,B) and mitochondrial membrane potential assay (Figure 8C).
# (§2) Figure 8 Hepatotoxicity assays for selected lead molecules. Cell viability (A) was measured using the PrestoBlue reagent, cell membrane damage (B) was assessed using the ToxiLight bioassay, and mitochondrial membrane potential (C) was assessed using a JC-1 probe. Assays performed after 24 h treatment with tested compounds and a reference alpidem. Results are presented as mean % of untreated controls ± S.D. (n = 3). Differences among groups were evaluated by one-way ANOVA followed by post-hoc analysis (Dunnett’s multiple comparison tests) and were considered statistically significant if p < 0.05 (****p < 0.0001, ***p < 0.001, **p < 0.01, and *p < 0.05). […]
# (§3) Cell viability was measured using the PrestoBlue reagent (Thermo Fisher). […] Metabolically active cells are capable of reducing the PrestoBlue reagent, with the colorimetric changes used as an indicator to quantify the viability of cells in culture. This change can be determined by measuring the fluorescence. […] After 30 min of incubation at 37 °C, the fluorescence intensity (EX 530; EM 580 nm) was measured by using a multifunction plate reader (POLARstar Omega, BMG Labtech, Germany). Viability values were calculated as a percentage of live cells with respect to the control sample. Cell membrane damage was measured using the bioluminescent ToxiLight bioassay (Lonza). It quantitatively measures the release of adenylate kinase (AK) from the membranes of damaged cells. […] The enzyme actively phosphorylates ADP, and the resultant ATP is then measured using the bioluminescent firefly luciferase reaction with the ToxiLight reagent. […]
# [4] = Thermodynamic solubility in phosphate buffer pH = 7.4; format: physicochemical; settings: phosphate buffer (Dulbecco's phosphate-buffered saline), aqueous buffer, thermodynamic from solid, phosphate buffer pH = 7.4, 20 °C
# Method: Quantitative HPLC analyses were performed on a Waters Alliance e2695 Separations Module (Waters, Milford, CT, USA) with a detector 2998 Photodiode Array (PDA) detector (Waters, Milford, CT, USA) and the Chromolithe SpeedROD RP-18e 50–4.6 mm column (Merck, KGaA, Darmstadt, Germany). The column was kept at 30 °C. The conditions applied are as follows: eluent A (water/0.1% formic acid), eluent B (MeCN/0.1% formic acid), a flow rate of ,5 mL/min, a gradient of 0–100% B over 3 min, and an injection volume of 10 μL. Each sample was injected in triplicate. […] Standard solutions of the tested compounds and the reference compound were prepared in methanol at a concentration of 1 mg/mL. […] Next, 2 mg of the compound tested was dissolved in 1 mL of Dulbecco’s phosphate-buffered saline (DPBS), and the mixture was constantly agitated at 20 °C for 24 h in a thermoshaker. After that time, the mixtures were filtered through a cellulose acetate syringe filter (pore size 0.22 μm) and transferred to a chromatographic vial and analyzed using HPLC. For quantification, areas under the peaks of the investigated compounds on DAD chromatograms were used. Solubility was determined using the calibration curves.
# [5] = test system: HepG2 human hepatoma cells; experiment: Hepatotoxicity assay: mitochondrial membrane potential (JC-1 probe); format: cell-based; settings: 100 μM, 24 h treatment
# Method: as §1, §2, §3
Compound,% of 10 μM GABA response [1],pKi GABA-A [2],"% remaining (parent compound) (in vitro; microsomes, 2 h, 50 μM)","remaining at 2 h, 50 μM (in vitro; microsomes)",cytotoxic effect in HepG2 cells [3],solubility at 24 h [4],mitochondrial membrane potential (MMP) of HepG2 cells [5],"formation of hydroxylated metabolite (M1) (in vitro; 120 min, 50 μM)",hepatotoxicity in HepG2 cells ([3]; at 100 and 50 μM)
"Cc1ccc2nc(-c3ccc(F)cc3)n(CC(=O)N3CCCC3)c2c1 [Compound 9, 2-(2-(4-Fluorophenyl)-6-methyl-1H-benzo[d]imidazole-1-yl)-1-(pyrrolidin-1-yl)ethan-1-one]","172 ± 12,5%",5.5,90.12%,90%,did not induce any significant cytotoxic effect,50 ± 0.54 µg/mL,did not observe mitochondrial membrane potential (MMP) attenuation,–,–
"NC(=O)c1cccc(NC(=O)Cn2c(-c3ccc(F)cc3)nc3ccccc32)c1 [Compound 23, 3-(2-(2-(4-Fluorophenyl)-1H-benzo[d]imidazole-1-yl)acetamido)benzamide]","132 ± 13,2%",6.05,–,89.1%,did not induce any significant cytotoxic effect,74 ± 0.81 µg/mL,did not observe mitochondrial membrane potential (MMP) attenuation,10.87%,–
"CCCN(CCC)C(=O)Cc1c(-c2ccc(Cl)cc2)nc2ccc(Cl)cn12 [alpidem, reference compound]",–,–,–,38.6%,–,–,induced mitochondrial dysfunction,–,noticeable hepatotoxicity
